# In US12441703B2, “Carboxamides as modulators of sodium channels” (VERTEX PHARMACEUTICALS INCORPORATED, priority 2019, dated 2025):
# Biological target: human NaV 1.8 (Homo sapiens, UniProt Q9Y5Y9)
# Assay: E-VIPR assay for detecting and measuring NaV inhibition properties
# Assay type: cell-based
# Settings: E-VIPR assay conducted in the presence of human serum; HEK cells expressing truncated human NaV 1.8
# Outline: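 HEK cells with truncated human NaV1.8 plus KIR2.1 BacMam, hexyl dye loaded 20 min, compound 30 min at room temperature, 11-point 3-fold series […], 0.625% DMSO, with or without human serum. E-VIPR biphasic stimulation at 10 Hz for 10 s; membrane-potential response read as normalized coumarin/oxonol ratio.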
# Sequence of human NaV 1.8 (Q9Y5Y9 whole entry, looked up): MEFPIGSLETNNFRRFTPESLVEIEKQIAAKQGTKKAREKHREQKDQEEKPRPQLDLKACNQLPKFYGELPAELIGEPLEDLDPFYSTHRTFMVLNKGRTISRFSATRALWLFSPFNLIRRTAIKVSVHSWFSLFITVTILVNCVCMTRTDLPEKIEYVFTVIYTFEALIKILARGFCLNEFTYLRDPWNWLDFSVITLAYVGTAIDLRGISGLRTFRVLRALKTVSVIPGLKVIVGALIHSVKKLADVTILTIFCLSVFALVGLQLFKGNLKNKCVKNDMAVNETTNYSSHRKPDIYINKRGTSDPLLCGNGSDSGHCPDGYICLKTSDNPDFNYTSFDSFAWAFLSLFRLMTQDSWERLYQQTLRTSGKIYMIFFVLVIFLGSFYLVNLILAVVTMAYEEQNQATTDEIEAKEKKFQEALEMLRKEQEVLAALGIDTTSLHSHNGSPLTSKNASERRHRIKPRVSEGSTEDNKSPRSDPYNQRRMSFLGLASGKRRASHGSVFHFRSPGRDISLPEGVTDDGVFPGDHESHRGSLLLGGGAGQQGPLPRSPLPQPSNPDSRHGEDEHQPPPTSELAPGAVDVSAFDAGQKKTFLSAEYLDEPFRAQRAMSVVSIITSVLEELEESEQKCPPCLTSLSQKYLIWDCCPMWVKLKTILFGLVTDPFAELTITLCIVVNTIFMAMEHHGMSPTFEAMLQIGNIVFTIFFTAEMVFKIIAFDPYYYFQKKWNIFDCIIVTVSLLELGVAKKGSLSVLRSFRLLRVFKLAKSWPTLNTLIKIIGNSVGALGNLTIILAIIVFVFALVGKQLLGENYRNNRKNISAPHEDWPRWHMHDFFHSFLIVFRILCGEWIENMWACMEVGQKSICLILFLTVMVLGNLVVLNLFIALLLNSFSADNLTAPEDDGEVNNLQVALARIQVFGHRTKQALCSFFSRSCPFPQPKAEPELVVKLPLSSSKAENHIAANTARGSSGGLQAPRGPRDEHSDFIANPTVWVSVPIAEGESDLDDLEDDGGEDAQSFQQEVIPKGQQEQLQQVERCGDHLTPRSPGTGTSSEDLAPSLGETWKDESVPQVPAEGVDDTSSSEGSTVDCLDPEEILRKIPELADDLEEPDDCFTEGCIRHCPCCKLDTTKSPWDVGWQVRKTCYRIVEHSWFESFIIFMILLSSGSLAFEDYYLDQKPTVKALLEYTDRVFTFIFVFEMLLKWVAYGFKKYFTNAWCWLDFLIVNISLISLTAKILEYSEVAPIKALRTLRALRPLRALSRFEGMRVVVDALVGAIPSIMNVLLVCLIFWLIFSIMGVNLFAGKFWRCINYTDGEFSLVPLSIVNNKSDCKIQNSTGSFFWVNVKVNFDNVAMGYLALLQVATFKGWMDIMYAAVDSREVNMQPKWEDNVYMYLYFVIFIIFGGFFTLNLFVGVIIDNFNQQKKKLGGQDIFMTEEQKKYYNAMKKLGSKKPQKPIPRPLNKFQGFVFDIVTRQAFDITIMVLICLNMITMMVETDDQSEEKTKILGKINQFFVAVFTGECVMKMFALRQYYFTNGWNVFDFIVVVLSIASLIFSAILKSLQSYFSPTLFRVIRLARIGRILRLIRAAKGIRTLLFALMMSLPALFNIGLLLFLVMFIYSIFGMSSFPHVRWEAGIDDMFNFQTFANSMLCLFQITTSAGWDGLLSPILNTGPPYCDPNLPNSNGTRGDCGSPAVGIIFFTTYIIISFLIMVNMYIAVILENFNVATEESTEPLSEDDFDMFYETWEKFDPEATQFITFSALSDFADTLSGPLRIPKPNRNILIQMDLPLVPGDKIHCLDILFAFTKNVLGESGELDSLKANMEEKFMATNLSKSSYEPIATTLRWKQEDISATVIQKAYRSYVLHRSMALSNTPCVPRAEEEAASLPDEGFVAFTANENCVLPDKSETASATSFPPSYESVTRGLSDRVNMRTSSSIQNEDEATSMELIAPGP
row,SMILES,IC50
1,"Cc1c(Oc2ccc(C(F)(F)F)c(C)c2C(=O)Nc2ccc(C(N)=O)nc2)ccc(OC(F)(F)F)c1F [Compound 289, 5-[[6-[3-Fluoro-2-Methyl-4-(Trifluoromethoxy)Phenoxy]-2-Methyl-3-(Trifluoromethyl)Benzoyl]Amino]Pyridine-2-Carboxamide]",39 nM

# Same assay, conditions: E-VIPR assay conducted in the presence of human serum; HEK cells expressing truncated human NaV 1.8; read-out: IC50
row,IC50,SMILES
1,84 nM,"COc1cc(OC(F)(F)F)ccc1Oc1cc(Cl)cc(F)c1C(=O)Nc1cc(C(N)=O)[n+]([O-])cc1C [Compound 267, 4-[[4-chloro-2-fluoro-6-[2-methoxy-4-(trifluoromethoxy)phenoxy]benzoyl]amino]-5-methyl-1-oxido-pyridin-1-ium-2-carboxamide]"
2,28 nM,"COc1cc(OC(F)(F)F)ccc1Oc1ccc(Cl)c(F)c1C(=O)Nc1cc(C(N)=O)[n+]([O-])cc1C [Compound 268, 4-[[3-chloro-2-fluoro-6-[2-methoxy-4-(trifluoromethoxy)phenoxy]benzoyl]amino]-5-methyl-1-oxido-pyridin-1-ium-2-carboxamide]"
3,37 nM,"COc1cc(OC(F)(F)F)ccc1Oc1ccc(C(F)(F)F)c(C#N)c1C(=O)Nc1ccnc(C(N)=O)c1 [Compound 269, 4-[[2-cyano-6-[2-methoxy-4-(trifluoromethoxy)phenoxy]-3-(trifluoromethyl)benzoyl]amino]pyridine-2-carboxamide]"
4,33 nM,"COc1cc(OC(F)(F)F)ccc1Oc1cnc(C(F)(F)F)c(C)c1C(=O)Nc1cnc(C(N)=O)nc1 [Compound 270, 5-[[5-[2-methoxy-4-(trifluoromethoxy)phenoxy]-3-methyl-2-(trifluoromethyl)pyridine-4-carbonyl]amino]pyrimidine-2-carboxamide]"
5,24 nM,"COc1cc(OC(F)(F)F)ccc1Oc1cnc(C(F)(F)F)c(C)c1C(=O)Nc1cc(C(N)=O)ncc1C [Compound 271, N-(2-carbamoyl-5-methyl-4-pyridyl)-5-[2-methoxy-4-(trifluoromethoxy)phenoxy]-3-methyl-2-(trifluoromethyl)pyridine-4-carboxamide]"
6,89 nM,"COc1cc(OC(F)(F)F)ccc1Oc1cc(C(F)(F)F)nc(OC)c1C(=O)Nc1cc(C(N)=O)ncc1C [Compound 272, N-(2-carbamoyl-5-methyl-4-pyridyl)-2-methoxy-4-[2-methoxy-4-(trifluoromethoxy)phenoxy]-6-(trifluoromethyl)pyridine-3-carboxamide]"
7,59 nM,"CNC(=O)c1cc(NC(=O)c2c(Oc3ccc(OC(F)(F)F)cc3OC)cnc(C(F)(F)F)c2OC)ccn1 [Compound 273, 3-methoxy-5-[2-methoxy-4-(trifluoromethoxy)phenoxy]-N-[2-(methylcarbamoyl)-4-pyridyl]-2-(trifluoromethyl)pyridine-4-carboxamide]"
8,39.3 nM,"CCc1nc(C(=O)Nc2ccnc(C(N)=O)c2)c(Oc2ccc(OC(F)(F)F)cc2OC)cc1C(F)(F)F [Compound 274, N-(2-carbamoyl-4-pyridyl)-6-ethyl-3-[2-methoxy-4-(trifluoromethoxy)phenoxy]-5-(trifluoromethyl)pyridine-2-carboxamide]"
9,170 nM,"COc1cc(OC(F)(F)F)ccc1Oc1cc(C(F)(F)F)c(OC)nc1C(=O)Nc1ccnc(C(N)=O)c1 [Compound 275, N-(2-Carbamoyl-4-Pyridyl)-6-Methoxy-3-[2-Methoxy-4-(Trifluoromethoxy)Phenoxy]-5-(Trifluoromethyl)Pyridine-2-Carboxamide]"
10,440 nM,"COc1cc(OC(F)(F)F)ccc1Oc1cc(C(F)(F)F)c(OC)cc1C(=O)Nc1ccnc(C(N)=O)c1 [Compound 276, 4-[[5-Methoxy-2-[2-Methoxy-4-(Trifluoromethoxy)Phenoxy]-4-(Trifluoromethyl)Benzoyl]Amino]Pyridine-2-Carboxamide]"
11,170 nM,"COc1cc(OC(F)(F)F)ccc1Oc1cc(C(F)(F)F)cc(OC)c1C(=O)Nc1ccnc(C(N)=O)c1 [Compound 277, 4-[[2-Methoxy-6-[2-Methoxy-4-(Trifluoromethoxy)Phenoxy]-4-(Trifluoromethyl)Benzoyl]Amino]Pyridine-2-Carboxamide]"
12,3.6 nM,"COc1cc(OC(F)(F)F)ccc1Oc1cc(C(F)(F)F)c(C)c(F)c1C(=O)Nc1ccnc(C(N)=O)c1 [Compound 278, 4-[[2-Fluoro-6-[2-Methoxy-4-(Trifluoromethoxy)Phenoxy]-3-Methyl-4-(Trifluoromethyl)Benzoyl]Amino]Pyridine-2-Carboxamide]"
13,19 nM,"COc1cc(OC(F)(F)F)ccc1Oc1cc(C(F)(F)F)c(F)cc1C(=O)Nc1cc[n+]([O-])c(C(N)=O)c1 [Compound 279, 4-[[5-Fluoro-2-[2-Methoxy-4-(Trifluoromethoxy)Phenoxy]-4-(Trifluoromethyl)Benzoyl]Amino]-1-Oxido-Pyridin-1-Ium-2-Carboxamide]"
14,4 nM,"COc1cc(OC(F)(F)F)ccc1Oc1ccc(OC(F)(F)F)c(F)c1C(=O)Nc1ccnc(C(N)=O)c1 [Compound 280, 4-[[2-Fluoro-6-[2-Methoxy-4-(Trifluoromethoxy)Phenoxy]-3-(Trifluoromethoxy)Benzoyl]Amino]Pyridine-2-Carboxamide]"
15,130 nM,"COc1cc(OC(F)(F)F)ccc1Oc1ccc(C(F)(F)F)c(C2CC2)c1C(=O)Nc1ccnc(C(N)=O)c1 [Compound 281, 4-[[2-Cyclopropyl-6-[2-Methoxy-4-(Trifluoromethoxy)Phenoxy]-3-(Trifluoromethyl)Benzoyl]Amino]Pyridine-2-Carboxamide]"
16,57 nM,"COc1cc(OC(F)(F)F)ccc1Oc1cc(C2CC2)c(C(F)(F)F)nc1C(=O)Nc1ccnc(C(N)=O)c1 [Compound 282, N-(2-Carbamoyl-4-Pyridyl)-5-Cyclopropyl-3-[2-Methoxy-4-(Trifluoromethoxy)Phenoxy]-6-(Trifluoromethyl)Pyridine-2-Carboxamide]"
17,4.2 nM,"COc1cc(OC(F)(F)F)ccc1Oc1cc(OC)c(C(F)(F)F)c(C)c1C(=O)Nc1ccnc(C(N)=O)c1 [Compound 283, 4-[[4-Methoxy-6-[2-Methoxy-4-(Trifluoromethoxy)Phenoxy]-2-Methyl-3-(Trifluoromethyl)Benzoyl]Amino]Pyridine-2-Carboxamide]"
18,4 nM,"COc1cc(OC(F)(F)F)ccc1Oc1cc(C(F)(F)F)c(OC)c(F)c1C(=O)Nc1ccnc(C(N)=O)c1 [Compound 284, 4-[[2-Fluoro-3-Methoxy-6-[2-Methoxy-4-(Trifluoromethoxy)Phenoxy]-4-(Trifluoromethyl)Benzoyl]Amino]Pyridine-2-Carboxamide]"
19,26 nM,"Cc1cnc(C(N)=O)cc1NC(=O)c1c(Oc2ccc(OC(F)(F)F)cc2C)ccc(C(F)(F)F)c1F [Compound 285, 4-[[2-Fluoro-6-[2-Methyl-4-(Trifluoromethoxy)Phenoxy]-3-(Trifluoromethyl)Benzoyl]Amino]-5-Methyl-Pyridine-2-Carboxamide]"
20,14 nM,"Cc1cc(OC(F)(F)F)ccc1Oc1ccc(Cl)c(F)c1C(=O)Nc1ccnc(C(N)=O)c1 [Compound 286, 4-[[3-Chloro-2-Fluoro-6-[2-Methyl-4-(Trifluoromethoxy)Phenoxy]Benzoyl]Amino]Pyridine-2-Carboxamide]"
21,590 nM,"Cc1c(C2CC2)ccc(Oc2ccc(OC(F)(F)F)cc2Cl)c1C(=O)Nc1ccc(C(N)=O)nc1 [Compound 287, 5-[[6-[2-Chloro-4-(Trifluoromethoxy)Phenoxy]-3-Cyclopropyl-2-Methyl-Benzoyl]Amino]Pyridine-2-Carboxamide]"
22,20.3 nM,"Cc1cnc(C(N)=O)cc1NC(=O)c1c(Oc2ccc(OC(F)(F)F)c(F)c2C)ccc(C(F)(F)F)c1C [Compound 288, 4-[[6-[3-Fluoro-2-Methyl-4-(Trifluoromethoxy)Phenoxy]-2-Methyl-3-(Trifluoromethyl)Benzoyl]Amino]-5-Methyl-Pyridine-2-Carboxamide]"
23,9.9 nM,"Cc1c(Oc2ccc(C(F)(F)F)c(C)c2C(=O)Nc2ccnc(C(N)=O)c2)ccc(OC(F)(F)F)c1F [Compound 290, 4-[[6-[3-Fluoro-2-Methyl-4-(Trifluoromethoxy)Phenoxy]-2-Methyl-3-(Trifluoromethyl)Benzoyl]Amino]Pyridine-2-Carboxamide]"
24,12.8 nM,"Cc1cnc(C(N)=O)cc1NC(=O)c1c(Oc2ccc(OC(F)(F)F)c(F)c2C)ccc(C(F)(F)F)c1F [Compound 291, 4-[[2-Fluoro-6-[3-Fluoro-2-Methyl-4-(Trifluoromethoxy)Phenoxy]-3-(Trifluoromethyl)Benzoyl]Amino]-5-Methyl-Pyridine-2-Carboxamide]"
25,54.5 nM,"Cc1c(Oc2ccc(C(F)(F)F)c(F)c2C(=O)Nc2ccc(C(N)=O)nc2)ccc(OC(F)(F)F)c1F [Compound 292, 5-[[2-Fluoro-6-[3-Fluoro-2-Methyl-4-(Trifluoromethoxy)Phenoxy]-3-(Trifluoromethyl)Benzoyl]Amino]Pyridine-2-Carboxamide]"
26,3.9 nM,"Cc1c(Oc2ccc(C(F)(F)F)c(F)c2C(=O)Nc2ccnc(C(N)=O)c2)ccc(OC(F)(F)F)c1F [Compound 293, 4-[[2-Fluoro-6-[3-Fluoro-2-Methyl-4-(Trifluoromethoxy)Phenoxy]-3-(Trifluoromethyl)Benzoyl]Amino]Pyridine-2-Carboxamide]"
27,6.8 nM,"Cc1c(Oc2ccc(OC(F)(F)F)c(F)c2C(=O)Nc2ccnc(C(N)=O)c2)ccc(OC(F)(F)F)c1F [Compound 294, 4-[[2-Fluoro-6-[3-Fluoro-2-Methyl-4-(Trifluoromethoxy)Phenoxy]-3-(Trifluoromethoxy)Benzoyl]Amino]Pyridine-2-Carboxamide]"
28,6.5 nM,"Cc1c(Oc2ccc(Cl)c(F)c2C(=O)Nc2ccnc(C(N)=O)c2)ccc(OC(F)(F)F)c1F [Compound 295, 4-[[3-Chloro-2-Fluoro-6-[3-Fluoro-2-Methyl-4-(Trifluoromethoxy)Phenoxy]Benzoyl]Amino]Pyridine-2-Carboxamide]"
29,24.6 nM,"Cc1cnc(C(N)=O)cc1NC(=O)c1c(Oc2ccc(OC(F)(F)F)c(F)c2Cl)ccc(C(F)(F)F)c1F [Compound 296, 4-[[6-[2-Chloro-3-Fluoro-4-(Trifluoromethoxy)Phenoxy]-2-Fluoro-3-(Trifluoromethyl)Benzoyl]Amino]-5-Methyl-Pyridine-2-Carboxamide]"
